Data on 1 compound can be found in publication PMC1890308, “Anti-calmodulins and Tricyclic Adjuvants in Pain Therapy Block the TRPV1 Channel” (PLoS ONE, 2007).

The target of one assay is T1, rat TRPV1 (Rattus norvegicus, UniProt O35433).
T1 construct: expressed in transfected cells
Briefly: capsaicin-induced 45Ca2+-uptake in TRPV1-NIH3T3 cells. Format: cell-based. As to the method:
Assays were carried out in 2×10^−5 M extracellular Ca^2+ in 96 well plate formats at room temperature (22°C) for 10 min with robotic liquid handling. […] We hypothesized that calmodulin antagonists and some registered drugs may exert their blocking effect with another mechanisms on TRPV1 and not necessarily on their conventional target.
TRPV1-NIH3T3 mouse fibroblast line, ectopically expressing the rat TRPV1 was established previously.
(§1) Vanilloid agonist inducible calcium transport was assayed in adherent cell lines ectopically expressing the C-terminally ε-tagged rat TRPV1 (3×10^4 cells/well) and primary cultures prepared from embryonic DRG, seeded in poly-D lysine/collagen coated 96 well plates. […] The previously established cell lines and standardized DRG cultures were extensively characterized for functional cell-based TRPV1 studies [1]–[4]. Immediately before the transport assay, cells were adapted to room temperature (20°C) for 5 min in HCM. ^45Ca^2+-uptake was performed for 10 min at 20°C in HCM using 0.1 µCi ^45Ca^2+ as radioactive tracer in a 100 µl final volume. To stop ^45Ca^2+-uptake, cells were rapidly changed back into 0.2 ml HCM, washed 4 additional times with 0.2 ml HCM, and then lysed in 80 µl/well RIPA buffer (50 mM Tris-HCl, pH 7.5, 150 mM NaCl, 1% Triton X-100, 0.5% deoxycholate, 0.1% SDS, 5 mM EDTA) for 30 min [1]–[4]. Aliquots of the solubilized cell extracts were mixed with 120 µl Microscint-40 and counted in a 96 well plate liquid scintillation counter (TopCount-NXT, Packard).

Assay [1] has as its system heat evoked responses of dorsal horn neurons. The experiment in a line: heat-evoked responses of spinal dorsal horn neurons, microiontophoresis, extracellular single unit recording. Format: in vivo, rat. Here is the method: To validate in vivo efficacy of calmidazolium, experiments were carried out in a total of 22 nociceptive specific (NS) or wide dynamic range (WDR) spinal dorsal horn neurons in 16 lightly anesthetized rats. Effects of calmidazolium were studied on the heat evoked responses of dorsal horn neurons using noxious peripheral heat stimuli delivered in every 3 min in the cutaneous receptive field of the hind paw. After establishing stable baseline control responses, calmidazolium was iontophoresed (i.e. with 100 nA) from one of the barrels of the compound electrode. […] The calmidazolium evoked inhibition reached its maximum within 10 to 15 min after ejection and lasted throughout the entire recording periods (about 2 hrs) of the experiment. The monitored cells had excitatory receptive fields located on one of the hind paws. These cells usually had little spontaneous activity, located between 100–600 µm from the surface of the dorsal horn, as estimated by microdrive readings. […] Likewise to that determined previously in TRPV1-NIH3T3 cells, TRPV1-HaCaT keratinocyte lines and primary culture of nociceptive neurons, calmidazolium inhibited the ratemeter recorded signals of radiation heat pain in the rat (Fig. 7). […]

For a further assay, the system named is formalin-induced pain. Set-up: method as in PMID 8883861. The conditions noted are these: rat, intrathecal; cited from earlier work.
The next assay has as its target TRPV1 (Rattus norvegicus, UniProt O35433). The experiment in a line: capsaicin-induced 45Ca2+-uptake in primary rat embryonic DRG cultures. Format: cell-based. Set-up: sensory neurons, expressing TRPV1 endogenously; endogenous in cells; host or cells: primary cultures of embryonic rat dorsal root ganglia (E14, E16). As to the method: Primary cultures were prepared from embryonic (E14) rat DRGs. Along with calmidazolium other polycyclic compounds were included in the vanilloid-induced ^45Ca^2+-transport assays.
Primary DRG cultures were prepared from E16 embryonic rats as described previously then plated in 15 cm Petri dishes for 4 h to remove the most adherent fibroblasts. For Ca^2+-uptake studies primary afferents neurons cultured in 96 well plates (3×10^3 cells/well), coated with poly-D lysine/collagen, which yielded both axons and dendrites bearing neurons due to neuronal growth factor supplementation in the culture medium [1]–[4]. The dendrites are large processes branching from the cell body that taper in diameter further from the cell body. The axons are a constant diameter and project over long distances from the cell body. Before the ion transport experiment, culture medium was removed and cells were washed three times. ^45Ca-uptake assays were carried out in “nominally zero Ca^2+” (i.e. 2×10^−5 M extracellular Ca^2+ ([Ca^2+]o) in 25 mM Tris-HCl buffered Hanks' balanced salt solution (pH 7.5), supplemented with 10 µM CaCl2 and 0.8 mM MgCl2medium (HCM) [1]–[4].
as §1

Where [2] appears, read: increasing concentrations of capsaicin.

pIC50: −log10 of the molar value. Several values for one entry are separate records, joined by “and”; a condition that tells them apart may be missing. Equal entries are not always repeated.

Chain of TRPV1 (O35433 whole entry): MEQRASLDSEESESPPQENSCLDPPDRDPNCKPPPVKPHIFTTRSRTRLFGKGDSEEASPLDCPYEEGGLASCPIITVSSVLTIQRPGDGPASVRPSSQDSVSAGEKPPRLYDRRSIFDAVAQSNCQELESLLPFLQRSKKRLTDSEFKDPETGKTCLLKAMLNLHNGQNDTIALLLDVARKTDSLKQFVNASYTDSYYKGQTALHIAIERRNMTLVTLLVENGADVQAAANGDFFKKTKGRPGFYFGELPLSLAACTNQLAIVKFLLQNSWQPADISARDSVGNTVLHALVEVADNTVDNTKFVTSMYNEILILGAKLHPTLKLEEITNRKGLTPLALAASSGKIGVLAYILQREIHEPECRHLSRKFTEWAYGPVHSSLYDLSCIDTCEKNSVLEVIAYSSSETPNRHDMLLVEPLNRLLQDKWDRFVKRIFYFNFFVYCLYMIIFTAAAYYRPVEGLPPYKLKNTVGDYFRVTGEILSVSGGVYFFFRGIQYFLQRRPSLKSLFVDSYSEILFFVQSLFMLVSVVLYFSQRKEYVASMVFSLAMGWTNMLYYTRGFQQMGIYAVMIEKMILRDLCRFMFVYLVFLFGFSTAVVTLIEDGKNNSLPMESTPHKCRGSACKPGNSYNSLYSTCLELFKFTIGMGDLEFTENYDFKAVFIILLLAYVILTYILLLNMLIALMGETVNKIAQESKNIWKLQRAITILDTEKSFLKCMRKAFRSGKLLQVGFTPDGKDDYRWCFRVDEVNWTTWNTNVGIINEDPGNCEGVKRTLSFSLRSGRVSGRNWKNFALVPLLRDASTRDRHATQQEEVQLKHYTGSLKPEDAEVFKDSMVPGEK
T1 sequence (O35433 whole entry): as above

For the compound `Clc1ccc(C(c2ccc(Cl)cc2)n2cc[n+](CC(OCc3ccc(Cl)cc3Cl)c3ccc(Cl)cc3Cl)c2)cc1` (stereo not drawn) [calmidazolium], the “antagonist activity on capsaicin-induced Ca2+-uptake (in words)” value on rat TRPV1 (2 µM capsaicin) is given as “full antagonists”. Further, the pIC50 – broadly, the IC50 on a negative log10 scale, so that one unit is a factor of ten – on rat TRPV1 (2 µM capsaicin, 10 min, 2×10^−5 M extracellular Ca2+, room temperature, read-out: IC50, inhibition of capsaicin-induced 45Ca2+-uptake) was 5.15 and ~5.70. On rat TRPV1 (setting [2]), the “concentration above which Ca2+-transport was almost completely abolished” value is recorded as greater than 2.5 µM and the “kinetics of Ca2+-transport inhibition” value is listed as “decreased Vmax”. For the same compound, in assay [1] (anesthetized rat, iontophoresis 100 nA, noxious peripheral heat on hind paw, mean±SD, n = 6), the “heat-evoked responses, % of pre-calmidazolium baseline control” value amounted to 34±23%. The “duration of inhibition (entire recording period)” value in assay [1] (heat-evoked responses, rat) is recorded as “about 2 hrs”. For the same compound, in the assay with formalin-induced pain, the “analgesia in both phases of formalin tests” value is “analgesic”. Besides, the “fold higher potency in DRG cultures” value on TRPV1 (DRG cultures vs TRPV1-NIH3T3 cells / other compounds (comparator unclear)) is roughly 3 fold. At TRPV1 (rat embryonic DRG sensory neuron cultures, 2 µM capsaicin, read-out: IC50, inhibition of capsaicin-induced Ca2+-uptake), the negative-log IC50 (pIC50) was 6.22 and ~6.22.
